System: skin of an arm
Assay: Hydration Test (corneometer)
Assay type: in vivo
Settings: n=10
Method: Each of the compositions in the table below were individually applied to the skin of an arm (n=10) and then removed with a moist cotton pad. A corneometer was used to take initial measurements, and subsequent measurements at 1, 2, and 6 hour time points.

Structure (SMILES): CCCCCCCCCCCCOS(=O)(=O)[O-].[Na+] [5% sodium lauryl sulfate, sodium lauryl sulfate]
- corneometer measurement, 1 hours (1 hour after application and removal with moist cotton pad, * = statistically significant): 34.2
- corneometer measurement, 2 hours (2 hours after application and removal, * = statistically significant): 33.5
- corneometer measurement, 6 hours (6 hours after application and removal, * = statistically significant): 32.4
- corneometer measurement, 0 hours (initial measurement): 30.7
